Measured values reported in patent US8354526B2, “Pyrido [4, 3-D] pyrimidinone derivatives as kinase inhibitors” (IRM LLC, priority 2008, dated 2013).
Read-outs that look alike come from different tables or passages of the source.

How the values were obtained:
BaF3/Tel-FMS = target: T1, BaF3/Tel-FMS (Homo sapiens, UniProt P07333); experiment: BaF3/Tel-FMS cellular proliferation assay; assay type: cell-based, murine; details: read-out: IC50 in BaF3/Tel-FMS cellular assay
T1 construct: fused on or other part: Dimerizing part of Tel (ETV6), fused to FMS; it is part of the key as ETV6; P41212 (Transcription factor ETV6)
T1 sequence (P07333 582-910 limits assumed): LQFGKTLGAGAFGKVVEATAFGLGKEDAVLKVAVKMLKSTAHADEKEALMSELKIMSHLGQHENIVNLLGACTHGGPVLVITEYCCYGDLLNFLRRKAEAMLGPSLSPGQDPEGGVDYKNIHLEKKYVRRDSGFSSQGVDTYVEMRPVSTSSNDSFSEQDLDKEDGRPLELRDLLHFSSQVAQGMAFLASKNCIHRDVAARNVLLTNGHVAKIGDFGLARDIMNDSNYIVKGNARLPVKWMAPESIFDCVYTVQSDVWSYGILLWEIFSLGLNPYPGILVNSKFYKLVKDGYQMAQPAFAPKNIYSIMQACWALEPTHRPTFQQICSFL
Method: (§2) Compounds of the invention are tested for their antiproliferative effect on Ba/F3 cells expressing either Tel-TrkA, Tel-TrkB or Tel-TrkC and an additional panel of 34 selected diverse kinases activated by fusion to the dimerizing partners Bcr or Tel (Abl, AlK, BMX, EphA3, EphB2, FGFR2, FGFR3, FGFR4, FGR, FLT1, FLT3, FLT4, FMS, IGF1R, InsR, JAK1, JAK2, JAK3, KDR, Kit, Lck, Lyn, MER, MET, PDGFRb, RET, RON, Ros-1, Src, Syk, TIE2, TYK2, Tie1, ZAP70). The antiproliferative effect of these compounds on the different cell lines and on the non transformed cells were tested at 12 different concentrations of 3-fold serially diluted compounds in 384 well plates as described above (in media lacking IL3). The IC50 values of the compounds the different cell lines were determined from the dose response curves obtained as describe above.

Zap70 (kinase domain) = target: T2, Zap70 (kinase domain) (Homo sapiens, UniProt P43403); experiment: Inhibition of enzymatic Zap70 kinase activity (HTRF); assay type: biochemical
T2 construct: Zap70 (kinase domain)
T2 sequence (P43403 338-600 limits assumed): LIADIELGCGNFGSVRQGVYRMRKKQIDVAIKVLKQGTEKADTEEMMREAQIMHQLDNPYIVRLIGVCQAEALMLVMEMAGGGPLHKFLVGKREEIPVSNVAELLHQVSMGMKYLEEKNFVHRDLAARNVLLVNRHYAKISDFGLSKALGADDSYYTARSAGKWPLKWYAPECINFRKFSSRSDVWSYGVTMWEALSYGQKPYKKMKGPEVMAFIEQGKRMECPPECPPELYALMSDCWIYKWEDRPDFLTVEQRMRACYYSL
Method: (§1) Purified recombinant hSyk (full length) and Zap70 (kinase domain) diluted in assay buffer are dispensed in 384 well proxi-plates. […] 50 nL of diluted compounds are added to the enzyme solutions and incubated for […] at room temperature, after which ATP and biotynilated peptide substrate are added. Substrate phosphorylation is a function of the HTRF signal measured following the addition of Cisbio-HTRF reagents.

hSyk (full length) = target: T3, hSyk (full length) (Homo sapiens, UniProt P43405); experiment: Inhibition of enzymatic Syk kinase activity (HTRF); assay type: biochemical
T3 construct: Purified recombinant hSyk (full length)
Method: as §1

BaF3/Tel-Syk = target: T4, BaF3/Tel-Syk (Homo sapiens, UniProt P43405); experiment: BaF3/Tel-Syk cellular proliferation assay; assay type: cell-based, murine; details: read-out: IC50 in BaF3/Tel-Syk cellular assay
T4 construct: fused on or other part: Dimerization domain of Tel (ETV6), fused to Syk; it is part of the key as ETV6; The host cells also express luciferase, which serves only as the read-out; P41212 (Transcription factor ETV6)
Method: (§3) Cells are maintained in RPMI/10% fetal calf serum (RPMI/FCS) supplemented with penicillin 50 μg/mL, streptomycin 50 μg/mL and L-glutamine 200 mM. Untransformed Ba/F3 cells are similarly maintained with the addition of murine recombinant IL3. Cells are dispensed into 384-well format plate at 5000 cell/well in 50 μL of culture medium. Compounds of the invention are dissolved and diluted in dimethylsufoxide (DMSO). Twelve points 1:3 serial dilutions are made into DMSO to create concentrations gradient ranging from 10 mM to 0.05 μM. Cells are added with 50 nL of diluted compounds and incubated for 48 hours in cell culture incubator. Luminiscent signal is measured following the addition of Bright Glo® (Promega) luciferase substrate. IC50 values are calculated by linear regression analysis of the percentage inhibition of each compound at 12 concentrations.

BaF3/Tel-KIT = target: T5, BaF3/Tel-KIT (Homo sapiens, UniProt P10721); experiment: BaF3/Tel-KIT cellular proliferation assay; assay type: cell-based, murine; details: read-out: IC50 in BaF3/Tel-KIT cellular assay
T5 construct: fused on or other part: Dimerizing part of Tel (ETV6), fused to c-Kit; P41212 (Transcription factor ETV6)
Method: as §2
Compounds were tested for their ability to inhibit the proliferation of wt Ba/F3 cells and Ba/F3 cells transformed with Tel c-Kit fused tyrosine kinases. Untransformed Ba/F3 cells are maintained in media containing recombinant IL3. Cells are plated into 384 well TC plates at 5,000 cells in 50 ul media per well and test compound at 0.06 nM to 10 μM is added. […] After incubating the cells, 25 μL of BRIGHT GLO® (Promega) is added to each well following manufacturer's instructions and the plates are read using Analyst GT—Luminescence mode—50000 integration time in RLU.

BaF3/Tel-KDR = target: T6, BaF3/Tel-KDR (Homo sapiens, UniProt P35968); experiment: BaF3/Tel-KDR cellular proliferation assay; assay type: cell-based, murine; details: read-out: IC50 in BaF3/Tel-KDR cellular assay
T6 construct: fused on or other part: Dimerization domain of Tel (ETV6), fused to KDR; it is part of the key as ETV6; The host cells also express luciferase, which serves only as the read-out; P41212 (Transcription factor ETV6)
Method: as §3

[1] = IC50 for Syk inhibition, Table 2, read-out: Syk HTRF

T5 sequence (P10721 589-937 limits assumed, change not shown): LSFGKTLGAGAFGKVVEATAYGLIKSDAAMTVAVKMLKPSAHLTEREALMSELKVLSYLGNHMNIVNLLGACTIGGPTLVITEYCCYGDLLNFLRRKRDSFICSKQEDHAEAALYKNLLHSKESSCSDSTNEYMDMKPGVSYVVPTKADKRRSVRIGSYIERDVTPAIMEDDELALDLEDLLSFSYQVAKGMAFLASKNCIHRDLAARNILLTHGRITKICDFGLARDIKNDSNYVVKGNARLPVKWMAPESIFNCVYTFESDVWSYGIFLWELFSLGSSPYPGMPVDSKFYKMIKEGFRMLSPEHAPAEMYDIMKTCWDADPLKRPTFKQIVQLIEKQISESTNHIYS
T6 sequence (P35968 834-1162 limits assumed, change not shown): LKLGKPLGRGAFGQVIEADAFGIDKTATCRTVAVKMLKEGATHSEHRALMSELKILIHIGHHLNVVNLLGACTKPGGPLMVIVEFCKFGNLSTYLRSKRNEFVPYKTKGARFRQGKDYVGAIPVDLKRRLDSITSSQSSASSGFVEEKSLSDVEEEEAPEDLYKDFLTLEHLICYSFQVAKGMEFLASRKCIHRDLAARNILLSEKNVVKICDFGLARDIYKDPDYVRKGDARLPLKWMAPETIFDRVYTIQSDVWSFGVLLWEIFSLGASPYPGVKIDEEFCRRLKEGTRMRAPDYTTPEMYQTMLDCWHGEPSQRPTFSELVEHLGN

Row | Structure (SMILES) | IC50 (hSyk (full length); [1]) [nM] | also measured
1 | O=c1[nH]cnc2cc(-c3ccccc3)nc(Nc3ccc(N4CCOCC4)cc3)c12 [Example 4a, 5-(4-morpholinophenylamino)-7-phenylpyrido[4,3-d]pyrimidin-4(3H)-one] | – | GI50 (BaF3/Tel-FMS): 7 nM; IC50 (Zap70 (kinase domain)): 38000 nM; IC50 (hSyk (full length); read-out: IC50 in Syk enzymatic assay): 90 nM; GI50 (BaF3/Tel-Syk): 160 nM; GI50 (BaF3/Tel-KIT): 30 nM; GI50 (BaF3/Tel-KDR): 1860 nM
2 | CC(C)Nc1nc(-c2ccc(C(C)(C)O)nc2)cc2ncn(C)c(=O)c12 [Example 6] | 190 | –
3 | COc1ccc(-c2cc3ncn(C)c(=O)c3c(NCCc3ccccn3)n2)cc1OC [Example 189] | 258 | –
4 | O=c1[nH]cnc2cc(-c3cc(Cl)ccc3Cl)nc(Nc3ccc(N4CCOCC4)cc3)c12 [Example 254] | 1120 | –
5 | Cn1cnc2cc(-c3ccc4c(c3)NC(=O)C(C)(C)O4)nc(NCC(F)F)c2c1=O [Example 273] | 198 | –
6 | O=c1[nH]cnc2cc(N3CCS(=O)(=O)CC3)nc(Nc3ccc(N4CCOCC4)nc3)c12 [Example 305] | 823 | –
7 | CC(C)Nc1nc(-c2cnc3[nH]ccc3c2)cc2ncn(C)c(=O)c12 [Example 324] | 340 | –
8 | Cn1cnc2cc(-c3cccc(S(C)(=O)=O)c3)nc(NC3CC3)c2c1=O [Example 349] | 375 | –
9 | CNc1nc(-c2ccc(C(C)(C)O)nc2)cc2ncn(C)c(=O)c12 [Example 352] | 376 | –
10 | COc1ccc(-c2cc3ncn(C)c(=O)c3c(Nc3ccc4cn[nH]c4c3)n2)cc1OC [Example 418] | 531 | –

Further molecules by falling IC50 (hSyk (full length); [1]), results first:

Row | IC50 (hSyk (full length); [1]) [nM] | Structure (SMILES) | also measured
11 | 139 | COCCOc1cc(-c2cc3ncn(C)c(=O)c3c(NCC(F)F)n2)ccc1OC [Example 270] | –
12 | 131 | CNS(=O)(=O)c1cc(-c2cc3ncn(C)c(=O)c3c(NC3CCC3)n2)ccc1OC [Example 415] | –
13 | 126 | CNc1cc(CNc2nc(-c3ccc(OC)c(OC)c3)cc3ncn(C)c(=O)c23)ccn1 [Example 183] | –
14 | 126 | CC(C)Nc1nc(-c2cnn(C)c2)cc2ncn(C)c(=O)c12 [Example 317] | –
15 | 114 | COc1cc(-c2cc3ncn(C)c(=O)c3c(NC[C@H](C)O)n2)ccc1OCCCN1CCOCC1 [Example 372] | –
16 | 113 | COc1cc(-c2cc3ncn(C)c(=O)c3c(NCC(F)F)n2)ccc1OCCCN1CCOCC1 [Example 366] | –
17 | 104 | COc1cc(-c2cc3ncn(C)c(=O)c3c(NCc3ccncc3)n2)ccc1N [Example 194] | –
18 | 84.3 | Cn1cnc2cc(-c3ccc4c(c3)NC(=O)C4)nc(NCc3ccnc(N)c3)c2c1=O [Example 278] | –
19 | 61 | O=c1[nH]cnc2cc(NCc3ccncc3)nc(Nc3ccc(N4CCOCC4)cc3)c12 [Example 25] | –
20 | 42.7 | CN1CCC(c2ccc(Nc3nc(N4CCC(N5CCCCC5)CC4)cc4nc[nH]c(=O)c34)cc2)CC1 [Example 313] | –
21 | 40 | COc1ccc(-c2cc3ncn(C)c(=O)c3c(NCc3ccncc3)n2)cc1OC [Example 114] | –
22 | 5.66 | NCCCNc1cc2nc[nH]c(=O)c2c(Nc2ccc(N3CCOCC3)cc2)n1 [Example 13] | –
